This is an account of results in patent publication US11197933B2, “Polysubunit opioid prodrugs resistant to overdose and abuse” (Elysium Therapeutics, Inc., priority 2017, dated 2021).

One data set addresses T1, trypsin (Bos taurus, UniProt P00760).
T1 construct: gene PRSS1
T1 sequence (P00760 24-246): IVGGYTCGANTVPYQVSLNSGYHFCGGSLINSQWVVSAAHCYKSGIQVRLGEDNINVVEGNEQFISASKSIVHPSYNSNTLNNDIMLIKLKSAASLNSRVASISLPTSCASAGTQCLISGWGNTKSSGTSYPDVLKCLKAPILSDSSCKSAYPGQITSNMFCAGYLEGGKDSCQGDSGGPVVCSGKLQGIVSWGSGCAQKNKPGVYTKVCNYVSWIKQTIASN
The experiment in a line: Trypsin inhibitory potency (key differentiating attributes, Table 5). In kind it is biochemical. An excerpt:
(§1) As mentioned previously, a wide range of targeted oral pharmacokinetic profiles can be achieved by administering pharmaceutical compositions containing specific combinations of different polysubunit molecules to subjects. For example, the different polysubunit molecules contained in the composition may differ with regard to (i) the specific opioid agonists delivered, (ii) the rates at which the opioid agonist is delivered in vivo (i.e. to modify the oral pharmacokinetic profile of the delivered opioid), and (iii) the combined inhibitory potency of the GI enzyme inhibiting subunits [i.e. to modify the overdose protection profile and/or the prescribed dose strengths of the delivered opioid agonist(s)]. Table 5 below provides non-limiting examples of compounds of the invention with their key differentiating attributes. Table 6 discusses scenarios and rationales for using the compounds presented in Table 5 in combination with each other, in useful pharmaceutical formulations of the invention.

A short description of data set [1]: Rate of release of opioid agonist (key differentiating attributes, Table 5). Particulars: for Rate of Release of Opioid Against: in words (Fast/Slow); for half-life: read-out: Rate of Release of Opioid Against: T1/2.
Excerpt: as §1

Each structure is given as a SMILES string.

On to `COc1ccc2c3c1OC1C(OC(=O)N(C)C(CNC(=O)[C@H](CCCNC(=N)N)NC(=O)CNC(C)=O)C(=O)NCCCC[C@H](NC(=O)OCc4ccccc4)C(=O)NCCOc4ccc(C(=O)Oc5ccc(NC(=N)N)cc5)cc4)=CC[C@H]4[C@@H](C2)N(C)CC[C@]314` (stereo partly drawn) [II-J-71c], for which, at trypsin, the “Trypsin Inhibitory Potency” value was “High”. Besides, in data set [1], the “Rate of Release of Opioid Against” value is “Slow” and the half-life was ~3 h.
Taken in the same sequence, the figures for `COc1ccc2c3c1OC1C(OC(=O)N(C)C(CNC(=O)[C@H](CCCNC(=N)N)NC(=O)CNC(C)=O)C(=O)NCCCC[C@H](NC(=O)OCc4ccccc4)C(=O)NCCOc4ccc(C(=O)Oc5cccc(NC(=N)N)c5)cc4)=CC[C@H]4[C@@H](C2)N(C)CC[C@]314` (stereo partly drawn) [II-J-71b] were “Low”, “Slow” and ~3 h.
